Laboratory results: US11083735B2, “Methods for treating sleep disorders, sleep disturbances, and related symptoms using aminosterol compositions” (Enterin, Inc., priority 2017, dated 2021)

Legend:
[1] = system: patients with PD; assay: Phase 2 trial Stage 2: circadian rhythm of wrist skin temperature (I-Button); assay type: in vivo, human
Method: FIGS. 20A-F show the effect of squalamine (ENT-01) on circadian rhythm. The figures depict the results of circadian non-parametric analysis of wrist skin temperature rhythm throughout each condition (baseline, treatment with highest dose of squalamine (ENT-01) and washout). The following parameters were measured: […] (FIG. 20A), inter-daily stability (IS) (FIG. 20B), relative amplitude (RA) (FIG. 20C), circadian function index (FIG. 20D), M5V (FIG. 20E), which refers to the five consecutive hours with the highest temperature or high somnolence, and L10V (FIG. 20F), which indicates the mean of the ten consecutive hours with lowest temperature or high activation. […] Student's paired t-test, *p<0.05, **p<01, ***p<0.001.Values expressed as mean±SEM (n=12 in each condition).
(6) I-Button Temperature Assessment. […] From the collected data, the mesor, amplitude, acrophase (time of peak temperature), Rayleight test (an index of interdaily stability), mean waveforms are calculated.);
Circadian rhythm of skin temperature was evaluable in 12 patients (i.e., those who had recordings that extended from baseline through washout). Circadian system functionality was evaluated by continuously monitoring wrist skin temperature using a temperature sensor (Thermochron iButton DS1921H; Maxim, Dallas, Tex.) (Sarabia et al. 2008). […]

[2] = system: patients with PD and constipation; conditions: in vivo
Method: In Stage 1, ten (10) PD patients received a single escalating dose of squalamine (ENT-01) every 3-7 days beginning at 25 mg and continuing up to 200 mg or the limit of tolerability, followed by 2-weeks of wash-out. Duration of this part of the trial was 22-57 days. The 10 subjects in the sentinel group were assigned to Cohort 1 and participated in 8 single dosing periods. Tolerability limits included diarrhea or vomiting.
Each dose period was staggered, so that subjects 1-2 were administered a single dose of the drug at the lowest dose of 25 mg. Once 24 hours have elapsed, and provided there are no safety concerns, the patient was sent home and brought back on day 4-8 for the next dose. During the days the subjects are home, they completed the daily diaries and e-mailed them to the study coordinators. Subjects 3-10 were dosed after the first 2 subjects have been observed for 72 hours, i.e. on Day 4. Subjects 1-2 were also brought back on Day 4-8 and given a single dose of 50 mg. Once another 24 hours have elapsed and provided there are no safety concerns, the patients were all sent home and instructed to return on Day 7 for the next dosing level. This single dosing regimen was continued until each subject was given a single dose of 200 mg or has reached a dose limiting toxicity (DLT). DLT was the dose which induces repeated vomiting, diarrhea, abdominal pain or symptomatic postural hypotension within 24 hours of dosing.
Adverse events were coded using the current version of MedDRA. Severity of AEs were assessed by investigators according to CTCAE (v4.03): Grade 1 is labeled as Mild, Grade 2 as Moderate, and Grade 3 and above as Severe. […] The number (percentage) of subjects who experienced an AE during escalation and fixed dosing periods were summarized by dose level and overall for each stage. The denominator for calculating the percentages were based on the number of subjects ever exposed to each dose and overall.

[3] = system: mice with constipation due to overexpression of human αS; assay: Oral squalamine in mice with constipation due to overexpression of human αS; assay type: in vivo, mouse; conditions: orally administered (West et al, manuscript in preparation)
[4] = system: single IPAN of the myenteric plexus; assay: IPAN electrophysiology, jejunum with luminal epithelium stripped; set-up: species or system mouse; conditions: squalamine applied directly onto the myenteric plexus
Method: Intrinsic primary afferent neurons (IPANs) are believed to be normally stimulated indirectly, through release of neurotransmitters from the epithelium. Since squalamine can be readily transported across an intact intestinal epithelial layer, and can enter a neuron, altering the surface potential of its plasma membrane, an experiment was designed to determine whether the effects of squalamine on the IPAN required the presence of the luminal epithelium.
Jejunum was prepared as described in the previous experiment, except the luminal epithelium was manually stripped off the organ using forceps. Squalamine was applied directly onto the myenteric plexus from the luminal surface. Electrophysiological studies were repeated to monitor the activity of a single IPAN within the area of the release of compound. Within 5 seconds the IPAN began a series of spontaneous discharges (FIG. 13A). […] Squalamine appears to be capable of communicating directly with the ENS, in contrast to most substances that communicate with the ENS only indirectly, via their effects on the epithelium.

[5] = system: vagal afferent fibers; assay: Multiunit firing of a jejunal branch of the vagus (mesenteric nerve); set-up: species or system mouse; conditions: luminal squalamine
Method: Squalamine was applied into the lumen by gravity feed 11 min after beginning the recording. […] The Control represents background discharge before applying squalamine, and the Peak gives the average firing frequency during a 3 min period at the peak of the response.
To determine whether the electrical activity stimulated by the luminal application of squalamine was principally contained within the ENS of the intestine, or whether it communicated information rostrally to the CNS, a further experiment was designed in which multiunit fiber firing rates were measured from a single jejunal branch of the vagus. Squalamine was introduced 11 minutes after recordings were begun. Vagal afferent firing frequency increased almost immediately thereafter to 3 fold the initial rate within a few minutes.

| Compound | markers of healthy circadian function (IS, RA, CFI, IV) ([1]; fixed dose vs baseline, 12 patients) | circadian parameters (IS, CFI) ([1]; wash-out period) | Eye infection, Moderate [2] | gastro-intestinal motility [3] | time to onset of spontaneous discharges of the IPAN [4] [s] | persistence of increased firing rate [5] | vagal afferent firing frequency relative to the initial rate ([5]; within a few minutes) [fold] |
| --- | --- | --- | --- | --- | --- | --- | --- |
| CC(C)[C@@H](CC[C@@H](C)[C@H]1CC[C@H]2[C@@H]3[C@H](O)C[C@H]4C[C@@H](NCCCNCCCCN)CC[C@]4(C)[C@H]3CC[C@]12C)OS(=O)(=O)O (single isomer, unassigned; ent-01) [ENT-01] | improved all markers of healthy circadian function | improvement persisted | 0 n, % |  |  |  |  |
| CC(C)[C@@H](CC[C@@H](C)[C@H]1CC[C@H]2[C@@H]3[C@H](O)C[C@H]4C[C@@H](NCCCNCCCCN)CC[C@]4(C)[C@H]3CC[C@]12C)OS(=O)(=O)O [squalamine] |  |  |  | stimulates gastro-intestinal motility | ≤ 5 | at least 20 minutes | 3 |
